Assay results as given in article PMC12586182 (Frontiers in Oncology, 2025).

How the values were obtained:
Experiment in all cases: Kinase panel profiling at 1 µmol/L (mobility shift assay, Carna)
Type in all cases: biochemical
Conditions in all cases: 1 µmol/L of BTK inhibitor
[1] = biological target: T1, KDR (Homo sapiens, UniProt P35968)
T1 construct: purchased Carna Biosciences

[2] = biological target: T2, p38γ (Homo sapiens, UniProt P53778)
T2 construct: purchased Carna Biosciences
T2 sequence (P53778 1-367): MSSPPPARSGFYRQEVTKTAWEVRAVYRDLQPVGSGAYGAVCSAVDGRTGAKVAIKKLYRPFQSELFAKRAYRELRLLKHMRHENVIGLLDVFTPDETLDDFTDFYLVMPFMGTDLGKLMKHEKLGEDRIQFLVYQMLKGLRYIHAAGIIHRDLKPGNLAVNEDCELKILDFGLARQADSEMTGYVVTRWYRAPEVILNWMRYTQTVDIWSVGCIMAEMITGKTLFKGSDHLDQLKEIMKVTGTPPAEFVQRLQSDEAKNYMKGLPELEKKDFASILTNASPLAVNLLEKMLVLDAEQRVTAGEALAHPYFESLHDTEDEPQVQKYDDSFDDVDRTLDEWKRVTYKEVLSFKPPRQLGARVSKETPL

[3] = biological target: T3, MER (Homo sapiens, UniProt Q12866)
T3 construct: purchased Carna Biosciences
T3 sequence (Q12866 21-999): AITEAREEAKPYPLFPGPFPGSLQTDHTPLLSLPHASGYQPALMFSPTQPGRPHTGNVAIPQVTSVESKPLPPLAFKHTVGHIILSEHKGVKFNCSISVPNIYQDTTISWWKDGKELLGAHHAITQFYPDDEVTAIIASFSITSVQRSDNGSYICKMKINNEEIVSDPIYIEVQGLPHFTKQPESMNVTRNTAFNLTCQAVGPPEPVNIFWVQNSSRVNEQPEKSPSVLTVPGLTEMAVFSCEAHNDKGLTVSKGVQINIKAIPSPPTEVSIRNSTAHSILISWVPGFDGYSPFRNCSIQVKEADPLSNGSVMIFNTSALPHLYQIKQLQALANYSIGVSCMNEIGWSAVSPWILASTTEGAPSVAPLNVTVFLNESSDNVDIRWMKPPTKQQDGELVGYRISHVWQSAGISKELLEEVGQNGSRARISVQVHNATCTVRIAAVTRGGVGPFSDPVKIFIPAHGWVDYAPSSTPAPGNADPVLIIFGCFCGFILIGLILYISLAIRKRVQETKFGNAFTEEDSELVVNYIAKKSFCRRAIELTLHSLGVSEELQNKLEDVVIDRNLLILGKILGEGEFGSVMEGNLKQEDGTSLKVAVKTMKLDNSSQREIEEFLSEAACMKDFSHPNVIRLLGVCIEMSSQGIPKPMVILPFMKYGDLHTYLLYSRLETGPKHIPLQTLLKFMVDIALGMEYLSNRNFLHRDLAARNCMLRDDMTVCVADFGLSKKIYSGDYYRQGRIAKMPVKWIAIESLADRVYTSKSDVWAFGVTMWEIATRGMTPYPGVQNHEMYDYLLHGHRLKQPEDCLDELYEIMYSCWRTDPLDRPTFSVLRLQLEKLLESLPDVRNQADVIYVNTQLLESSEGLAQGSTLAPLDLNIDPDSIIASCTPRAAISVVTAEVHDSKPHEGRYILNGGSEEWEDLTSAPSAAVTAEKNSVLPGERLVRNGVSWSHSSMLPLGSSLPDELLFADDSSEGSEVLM

[4] = biological target: T4, IKKε (Homo sapiens, UniProt Q14164)
T4 construct: purchased Carna Biosciences
T4 sequence (Q14164 1-716): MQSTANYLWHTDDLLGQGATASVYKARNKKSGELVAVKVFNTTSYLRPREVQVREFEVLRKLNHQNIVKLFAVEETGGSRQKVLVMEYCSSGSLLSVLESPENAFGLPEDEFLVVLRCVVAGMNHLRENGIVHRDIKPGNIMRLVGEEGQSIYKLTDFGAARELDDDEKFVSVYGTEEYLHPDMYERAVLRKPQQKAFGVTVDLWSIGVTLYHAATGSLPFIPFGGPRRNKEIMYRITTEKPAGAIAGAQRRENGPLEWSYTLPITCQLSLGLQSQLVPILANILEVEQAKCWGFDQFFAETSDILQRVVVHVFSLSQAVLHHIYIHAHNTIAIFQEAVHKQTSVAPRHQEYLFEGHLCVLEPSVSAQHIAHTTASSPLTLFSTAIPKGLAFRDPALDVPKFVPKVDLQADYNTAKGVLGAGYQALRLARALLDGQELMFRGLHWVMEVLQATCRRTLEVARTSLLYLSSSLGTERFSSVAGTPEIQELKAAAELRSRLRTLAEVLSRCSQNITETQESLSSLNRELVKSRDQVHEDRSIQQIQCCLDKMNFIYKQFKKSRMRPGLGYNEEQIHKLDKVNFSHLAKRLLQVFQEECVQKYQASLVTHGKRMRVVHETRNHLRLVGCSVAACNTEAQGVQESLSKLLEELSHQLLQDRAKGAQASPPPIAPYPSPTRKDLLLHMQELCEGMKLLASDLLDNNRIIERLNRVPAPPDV

[5] = biological target: T5, SRPK1 (Homo sapiens, UniProt Q96SB4)
T5 construct: purchased Carna Biosciences

[6] = biological target: T6, EEF2K (Homo sapiens, UniProt O00418)
T6 construct: purchased Carna Biosciences
T6 sequence (O00418 1-725): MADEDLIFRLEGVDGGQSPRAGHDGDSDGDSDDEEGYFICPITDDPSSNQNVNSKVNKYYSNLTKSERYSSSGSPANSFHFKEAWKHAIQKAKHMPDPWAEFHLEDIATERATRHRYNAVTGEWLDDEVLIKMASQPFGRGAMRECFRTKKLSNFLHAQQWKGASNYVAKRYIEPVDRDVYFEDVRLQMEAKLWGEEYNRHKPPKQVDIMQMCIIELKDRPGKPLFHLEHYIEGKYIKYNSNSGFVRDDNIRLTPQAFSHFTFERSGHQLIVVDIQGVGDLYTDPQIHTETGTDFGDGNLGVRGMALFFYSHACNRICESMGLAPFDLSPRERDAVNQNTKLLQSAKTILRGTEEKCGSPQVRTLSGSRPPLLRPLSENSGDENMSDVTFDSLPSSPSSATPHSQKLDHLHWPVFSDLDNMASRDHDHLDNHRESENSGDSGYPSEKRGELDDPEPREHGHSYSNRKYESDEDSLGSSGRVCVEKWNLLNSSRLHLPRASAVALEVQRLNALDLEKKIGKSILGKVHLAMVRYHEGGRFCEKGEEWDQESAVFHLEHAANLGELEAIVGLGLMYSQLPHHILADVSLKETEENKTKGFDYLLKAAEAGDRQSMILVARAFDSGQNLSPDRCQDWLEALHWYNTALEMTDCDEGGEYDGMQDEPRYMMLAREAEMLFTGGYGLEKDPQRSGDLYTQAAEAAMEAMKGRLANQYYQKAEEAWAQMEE

[7] = biological target: T7, DYRK1A (Homo sapiens, UniProt Q13627)
T7 construct: purchased Carna Biosciences

T5 sequence (Q96SB4 whole entry): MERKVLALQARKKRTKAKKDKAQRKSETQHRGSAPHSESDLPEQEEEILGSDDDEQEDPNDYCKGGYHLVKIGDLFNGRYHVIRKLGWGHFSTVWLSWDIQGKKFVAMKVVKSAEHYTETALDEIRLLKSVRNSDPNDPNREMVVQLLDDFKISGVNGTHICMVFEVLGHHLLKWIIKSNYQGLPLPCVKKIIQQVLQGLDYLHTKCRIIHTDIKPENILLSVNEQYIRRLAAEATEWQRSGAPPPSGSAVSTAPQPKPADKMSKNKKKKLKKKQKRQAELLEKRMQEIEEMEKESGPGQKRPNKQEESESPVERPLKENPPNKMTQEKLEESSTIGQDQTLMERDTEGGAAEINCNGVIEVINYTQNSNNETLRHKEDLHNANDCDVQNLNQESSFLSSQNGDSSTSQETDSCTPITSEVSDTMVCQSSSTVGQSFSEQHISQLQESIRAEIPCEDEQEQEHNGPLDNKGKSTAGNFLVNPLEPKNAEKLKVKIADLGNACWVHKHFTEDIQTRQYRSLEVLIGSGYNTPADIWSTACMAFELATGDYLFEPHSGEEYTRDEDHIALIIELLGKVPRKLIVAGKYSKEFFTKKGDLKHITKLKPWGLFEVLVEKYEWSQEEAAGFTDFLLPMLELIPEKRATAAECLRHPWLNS
T1 sequence (P35968 20-1356): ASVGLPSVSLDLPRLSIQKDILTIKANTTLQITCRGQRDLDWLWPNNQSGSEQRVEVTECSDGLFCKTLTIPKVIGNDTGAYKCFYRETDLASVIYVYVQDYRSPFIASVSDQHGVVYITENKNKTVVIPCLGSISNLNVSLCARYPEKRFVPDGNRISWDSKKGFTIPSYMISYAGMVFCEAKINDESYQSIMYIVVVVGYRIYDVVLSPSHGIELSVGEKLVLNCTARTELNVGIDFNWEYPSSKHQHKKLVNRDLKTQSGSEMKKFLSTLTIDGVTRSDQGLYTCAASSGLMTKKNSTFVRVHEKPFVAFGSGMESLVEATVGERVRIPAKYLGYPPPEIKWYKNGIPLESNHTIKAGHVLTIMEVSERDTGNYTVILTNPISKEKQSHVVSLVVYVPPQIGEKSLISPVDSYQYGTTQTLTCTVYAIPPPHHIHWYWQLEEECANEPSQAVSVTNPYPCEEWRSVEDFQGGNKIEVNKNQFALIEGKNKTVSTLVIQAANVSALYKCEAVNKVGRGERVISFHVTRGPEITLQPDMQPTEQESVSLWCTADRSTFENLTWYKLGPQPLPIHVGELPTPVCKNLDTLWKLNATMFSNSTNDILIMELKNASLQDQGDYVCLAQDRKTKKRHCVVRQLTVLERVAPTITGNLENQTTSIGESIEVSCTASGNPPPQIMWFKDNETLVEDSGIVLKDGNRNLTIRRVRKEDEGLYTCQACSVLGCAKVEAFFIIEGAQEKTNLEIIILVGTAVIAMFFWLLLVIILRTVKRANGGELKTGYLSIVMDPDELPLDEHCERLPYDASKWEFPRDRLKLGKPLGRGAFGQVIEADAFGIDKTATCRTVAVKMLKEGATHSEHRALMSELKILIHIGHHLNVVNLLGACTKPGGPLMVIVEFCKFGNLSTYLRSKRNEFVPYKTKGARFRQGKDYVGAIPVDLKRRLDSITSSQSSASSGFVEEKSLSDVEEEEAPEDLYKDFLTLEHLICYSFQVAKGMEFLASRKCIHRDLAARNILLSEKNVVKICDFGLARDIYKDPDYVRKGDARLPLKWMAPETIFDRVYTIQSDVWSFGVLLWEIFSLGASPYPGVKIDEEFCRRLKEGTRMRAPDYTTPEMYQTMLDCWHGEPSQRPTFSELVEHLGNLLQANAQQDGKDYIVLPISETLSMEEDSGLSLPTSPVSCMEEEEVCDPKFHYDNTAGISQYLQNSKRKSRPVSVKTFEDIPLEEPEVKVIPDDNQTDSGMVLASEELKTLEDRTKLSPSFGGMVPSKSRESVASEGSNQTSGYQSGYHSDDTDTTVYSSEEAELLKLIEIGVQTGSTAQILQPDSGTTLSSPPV

Row | Compound | Percentage inhibition of kinase enzyme activity [1] | Percentage inhibition of kinase enzyme activity [2] | Percentage inhibition of kinase enzyme activity [3] | Percentage inhibition of kinase enzyme activity [4] | Percentage inhibition of kinase enzyme activity [5] | Percentage inhibition of kinase enzyme activity [6] | Percentage inhibition of kinase enzyme activity [7]
1 | CC#CC(=O)N1CCC[C@H]1c1nc(-c2ccc(C(=O)Nc3ccccn3)cc2)c2c(N)nccn12 [acalabrutinib] | 6.81% | -1.74% | -3.37% | 1.46% | -4.73% | -12.14% | -4.57%
2 | C=CC(=O)N1CCC([C@@H]2CCNc3c(C(N)=O)c(-c4ccc(Oc5ccccc5)cc4)nn32)CC1 [zanubrutinib] | -4.47% |  | -2.35% |  |  |  | 
3 | O=C(c1ccc(Oc2ccccc2)cc1Cl)c1c[nH]c2ncnc(N[C@@H]3CC[C@@H](CO)OC3)c12 [nemtabrutinib] | 80.64% | 0.72% | 29.53% | 11.64% | 6.73% | 0.24% | -2.18%
4 | COc1ccc(F)cc1C(=O)NCc1ccc(-c2nn([C@@H](C)C(F)(F)F)c(N)c2C(N)=O)cc1 [pirtobrutinib] | -1.66% | -2.05% | -2.75% | 5.28% | 8.97% | -0.12% | -2.78%
5 | C=CC(=O)N1CCC[C@@H](n2nc(-c3ccc(Oc4ccccc4)cc3)c3c(N)ncnc32)C1 [ibrutinib] | 83.54% | 3.51% |  | -0.70% | 1.20% | 1.15% | -3.54%
